In patent publication US10988433B2, “Cyclohexyl GPR40 agonists for the treatment of type II diabetes” (Janssen Pharmaceutica NV, priority 2016, dated 2021):

What was measured:
human GPR40 = target: T1, human GPR40 (Homo sapiens, UniProt O14842); experiment: GPR40 calcium flux assay, HEK293 cells stably expressing human GPR40; assay type: cell-based; details: transfected HEK293 cells stably expressing human GPR40, Fluo 8 dye, read-out: hGPR40 Ca2+ Assay EC50
T1 construct: expressed in transfected cells
Method: (§1) Compounds were tested in a calcium flux assay using transfected HEK293 cells stably expressing either human GPR40 or rat GPR40. Human GPR40 expressing cells were cultured in DMEM-High Glucose media supplemented with 10% fetal bovine serum, 1×L-Glutamine, 1×Penicillin/Streptomycin and 500 μg/mL G418. Rat GPR40 expressing cells were cultured in DMEM-High Glucose media supplemented with 10% fetal bovine serum and 1 μg/mL puromycin. Cells were plated into poly-D-lysine coated 384-well plates and cultured overnight in a 37° C. humidified tissue culture incubator under 5% CO2/[…] atmosphere. On the day of the experiment, the culture media was replaced with assay buffer (HBSS, 20 mM HEPES, 0.1% BSA) and the cells incubated at 37° C. for 1 h. Calcium-sensitive fluorescent dye (Fluo 8 No-Wash Calcium Dye, ABD Bioquest) was then added and the cells incubated for another 30 min at 37° C. followed by 15 min at room temperature while protected from the light. The cell plate and a plate of diluted compounds of Formula (I) were loaded into a fluorescent plate reader that added compounds onto the cells while measuring the fluorescence intensity of each well. The plate reader recorded fluorescence intensity at 1 second intervals for 8 min and provided the data for analysis in an Excel format. EC50 values were calculated using Prism (GraphPad) software.

rat GPR40 = target: T2, rat GPR40 (Rattus norvegicus, UniProt Q8K3T4); experiment: GPR40 calcium flux assay, HEK293 cells stably expressing rat GPR40; assay type: cell-based; details: transfected HEK293 cells stably expressing rat GPR40, Fluo 8 dye, read-out: rGPR40 Ca2+ Assay EC50
T2 construct: expressed in transfected cells
Method: as §1

T1 sequence (O14842 whole entry): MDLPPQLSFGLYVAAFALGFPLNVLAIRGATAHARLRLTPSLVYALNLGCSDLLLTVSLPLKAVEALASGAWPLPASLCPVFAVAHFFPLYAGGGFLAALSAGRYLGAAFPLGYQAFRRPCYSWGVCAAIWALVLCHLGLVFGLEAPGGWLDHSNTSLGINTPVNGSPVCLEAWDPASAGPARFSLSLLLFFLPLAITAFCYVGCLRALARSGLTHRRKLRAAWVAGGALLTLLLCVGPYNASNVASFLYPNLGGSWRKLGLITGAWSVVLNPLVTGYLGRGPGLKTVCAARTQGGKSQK
T2 sequence (Q8K3T4 whole entry): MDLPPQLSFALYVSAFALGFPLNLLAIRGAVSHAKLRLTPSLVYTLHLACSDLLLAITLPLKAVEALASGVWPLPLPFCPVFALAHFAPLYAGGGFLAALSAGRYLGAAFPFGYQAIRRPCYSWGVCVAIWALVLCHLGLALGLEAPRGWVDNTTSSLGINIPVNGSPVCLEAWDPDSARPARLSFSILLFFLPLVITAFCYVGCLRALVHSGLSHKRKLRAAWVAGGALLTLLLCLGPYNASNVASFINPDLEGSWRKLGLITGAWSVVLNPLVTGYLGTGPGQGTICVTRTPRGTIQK

SMILES	EC50 (human GPR40) [nM]	EC50 (rat GPR40) [nM]
COc1ccc(F)c([C@H]2CC[C@@H](CNc3cccc([C@@H](CC(=O)O)C4CC4)c3)CC2)c1 [Cpd 47, (S)-3-cyclopropyl-3-(3-((((1s,4R)-4-(2-fluoro-5-methoxyphenyl)cyclohexyl)methyl)amino)phenyl)propanoic acid]	71.5	147
COc1ccc(F)c([C@H]2CC[C@H](COc3ccnc(C(CC(=O)O)C4CC4)c3)CC2)c1 (stereo partly drawn) [Cpd 34, 3-Cyclopropyl-3-(4-(((1r,4r)-4-(2-fluoro-5-methoxyphenyl)cyclohexyl)methoxy)pyridin-2-yl)propanoic acid]	62.4	282
COc1ccc(F)c([C@H]2CC[C@H](COc3cccc([C@H](C4CC4)C(C)C(=O)O)c3)CC2)c1 (single isomer, unassigned) [Cpd 51]	2.2	4.9
COc1ccc(F)c([C@H]2CC[C@H](COc3cccc([C@H](C4CC4)[C@](C)(F)C(=O)O)c3)CC2)c1 [Cpd 60, (2S,3S)-3-Cyclopropyl-2-fluoro-3-(3-(((1r,4S)-4-(2-fluoro-5-methoxyphenyl)cyclohexyl)methoxy)phenyl)-2-methylpropanoic acid]	6.05	6.88
COc1ccc(F)c([C@H]2CC[C@@H](COc3cccc([C@@H](Cc4nnn[nH]4)C4CC4)c3)CC2)c1 [Cpd 39, 5-((S)-2-Cyclopropyl-2-(3-(((1s,4R)-4-(2-fluoro-5-methoxyphenyl)cyclohexyl)methoxy)phenyl)ethyl)-1H-tetrazole]	600	3150
CCOC(CC(=O)O)c1cccc(OC[C@H]2CC[C@@H](c3cc(OC)ccc3F)CC2)c1 (stereo partly drawn) [Cpd 50, 3-Ethoxy-3-(3-(((1s,4s)-4-(2-fluoro-5-methoxyphenyl)cyclohexyl)methoxy)phenyl) propanoic acid]	500	656
COc1cc([C@H]2CC[C@@H](COc3cccc(C(CC(=O)O)C4CC4)n3)CC2)c(F)cn1 (stereo partly drawn) [Cpd 16, 3-Cyclopropyl-3-(6-(((1s,4s)-4-(5-fluoro-2-methoxypyridin-4-yl)cyclohexyl)methoxy)pyridin-2-yl)propanoic acid]	3080	
COc1cc([C@H]2CC[C@@H](COc3cncc(C(CC(=O)O)C4CC4)c3)CC2)c(F)cn1 (stereo partly drawn) [Cpd 23, 3-Cyclopropyl-3-(5-(((1s,4s)-4-(5-fluoro-2-methoxypyridin-4-yl)cyclohexyl)methoxy)pyridin-3-yl)propanoic acid]	307	
COc1ccc(F)c([C@H]2CC[C@@H](COc3cncc(C(CC(=O)O)C4CC4)c3)CC2)c1 (stereo partly drawn) [Cpd 18, 3-Cyclopropyl-3-(5-(((1s,4s)-4-(2-fluoro-5-methoxyphenyl)cyclohexyl)methoxy)pyridin-3-yl)propanoic acid]	226	
COc1ccc(F)c([C@]2(O)CC[C@H](COc3cccc([C@@H](CC(=O)O)C4CC4)c3)CC2)c1 [Cpd 6, (S)-3-Cyclopropyl-3-(3-(((1r,4S)-4-(2-fluoro-5-methoxyphenyl)-4-hydroxycyclohexyl)methoxy)phenyl)propanoic acid]	377	
COc1cc([C@H]2CC[C@H](COc3cccc(C(CC(=O)O)C4CC4)n3)CC2)c(F)cn1 (stereo partly drawn) [Cpd 15, 3-Cyclopropyl-3-(6-(((1r,4r)-4-(5-fluoro-2-methoxypyridin-4-yl)cyclohexyl)methoxy)pyridin-2-yl)propanoic acid]	138	
COc1ccc(F)c([C@H]2CC[C@@H](COc3cccc(C(CC(=O)O)C4CC4)n3)CC2)c1 (stereo partly drawn) [Cpd 14, 3-Cyclopropyl-3-(6-(((1 s,4s)-4-(2-fluoro-5-methoxyphenyl)cyclohexyl)methoxy)pyridin-2-yl)propanoic acid]	1500	

Next, values leading:

EC50 (human GPR40) [nM]	EC50 (rat GPR40) [nM]	SMILES
1.7	9.2	COc1ccc(F)c([C@H]2CC[C@H](CCc3cccc([C@@H](CC(=O)O)C4CC4)c3)CC2)c1 [Cpd 36, (S)-3-Cyclopropyl-3-(3-(2-((1r,4R)-4-(2-fluoro-5-methoxyphenyl)cyclohexyl)ethyl)phenyl) propanoic acid]
32.6	86.7	COc1cc([C@H]2CC[C@H](COc3cccc([C@H](C4CC4)[C@](C)(F)C(=O)O)c3)CC2)c(F)cn1 [Cpd 63]
0.5	1.4	COc1ccc(F)c(C2CCC(COc3cccc([C@H](C4CC4)C(F)C(=O)O)c3)CC2)c1 (stereo partly drawn) [Cpd 54, (3S)-3-Cyclopropyl-2-fluoro-3-(3-(((1r,4S)-4-(2-fluoro-5-methoxyphenyl)cyclohexyl)methoxy)phenyl)propanoic acid]
0.5	1.2	CCc1ccc(F)c([C@H]2CC[C@H](COc3cccc([C@H](C4CC4)[C@H](C)C(=O)O)c3)CC2)c1 [Cpd 57, (2S,3R)-3-cyclopropyl-3-(3-(((1r,4R)-4-(5-ethyl-2-fluorophenyl)cyclohexyl)methoxy)phenyl)-2-methylpropanoic acid]
9.9	29	COc1cc([C@]2(OC)CC[C@@H](COc3cc([C@@H](CC(=O)O)C4CC4)ccn3)CC2)c(F)cn1 [Cpd 44, (S)-3-cyclopropyl-3-(2-(((1s,4R)-4-(5-fluoro-2-methoxypyridin-4-yl)-4-methoxycyclohexyl)methoxy)pyridin-4-yl) propanoic acid]
2.1	29.4	COc1cc(C2CCC(COc3cccc([C@@H](CC(=O)O)C4CC4)c3)C(CC(C)C)C2)c(F)cn1 (stereo partly drawn) [Cpd 30, (3S)-3-Cyclopropyl-3-(3-((4-(5-fluoro-2-methoxypyridin-4-yl)-2-isobutylcyclohexyl)methoxy)phenyl)propanoic acid]
0.5	2.8	COc1cc([C@H]2CC[C@H](COc3cccc([C@@H](CC(=O)O)C4CC4)c3)CC2)c(F)cn1 [Cpd 9, (S)-3-Cyclopropyl-3-(3-(((1r,4S)-4-(5-fluoro-2-methoxypyridin-4-yl)cyclohexyl)methoxy)phenyl)propanoic acid]
6.2	15.6	COc1ccc(F)c([C@H]2CC[C@H](COc3cccc([C@H](CC(=O)O)C4CC4)c3)CC2)c1 [Cpd 38, (R)-3-cyclopropyl-3-(3-(((1r,4R)-4-(2-fluoro-5-methoxyphenyl)cyclohexyl)methoxy)phenyl)propanoic acid]
10.9	19.8	COc1ccc(F)c([C@H]2CC[C@H](COc3cc([C@H](CC(=O)O)C4CC4)ccn3)CC2)c1 [Cpd 26, (R)-3-cyclopropyl-3-(2-(((1r,4r)-4-(2-fluoro-5-methoxyphenyl)cyclohexyl)methoxy)pyridin-4-yl)propanoic acid]
17.6	51.9	COc1cc([C@H]2CC[C@H](COc3cncc(C(CC(=O)O)C4CC4)c3)CC2)c(F)cn1 (stereo partly drawn) [Cpd 22, 3-Cyclopropyl-3-(5-(((1r,4r)-4-(5-fluoro-2-methoxypyridin-4-yl)cyclohexyl)methoxy)pyridin-3-yl)propanoic acid]
0.16	0.15	COc1ccc(C)c(C2CCC(COc3cccc([C@H](C4CC4)C(C)(F)C(=O)O)c3)CC2)c1 (stereo partly drawn) [Cpd 70, (3S)-3-Cyclopropyl-2-fluoro-3-(3-((4-(5-methoxy-2-methylphenyl)cyclohexyl)methoxy)phenyl)-2-methylpropanoic acid]
44.3	388	COc1ccc(F)c([C@H]2CC[C@H](COc3cccc([C@@H](Cc4nnn[nH]4)C4CC4)c3)CC2)c1 [Cpd 17, 5-((S)-2-Cyclopropyl-2-(3-(((1r,4S)-4-(2-fluoro-5-methoxyphenyl)cyclohexyl)methoxy)phenyl)ethyl)-1H-tetrazole]
